Laboratory results: patent US12071425B2 (Genentech, Inc., priority 2018, dated 2024)
Counter-ions that a name gives are not always drawn.

molecular target: kinase domain of IRE1 alpha (His-tagged kinase dead construct KR, AA G547-L977, D688N) (Homo sapiens (Human), UniProt O75460, D688N); experiment: IRE1α TR-FRET competition binding assay; conditions: competition with Kinase Tracer 236, 0.1 μM; one hour at room temperature
Procedure, shortened: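 Compound displacement of an ATP-site fluorescent tracer (0.1 μM final) measured by TR-FRET after 1 h at room temperature. Protein, a His-tagged D688N kinase/RNase construct from Sf9 cells (0.006 μM final), was pre-bound 1 h at 4° C to Eu anti-His antibody (0.002 μM) in pH 7.5 HEPES buffer.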

Sequence of kinase domain of IRE1 alpha (His-tagged kinase dead construct KR, AA G547-L977, D688N) (O75460 547-977 D688N): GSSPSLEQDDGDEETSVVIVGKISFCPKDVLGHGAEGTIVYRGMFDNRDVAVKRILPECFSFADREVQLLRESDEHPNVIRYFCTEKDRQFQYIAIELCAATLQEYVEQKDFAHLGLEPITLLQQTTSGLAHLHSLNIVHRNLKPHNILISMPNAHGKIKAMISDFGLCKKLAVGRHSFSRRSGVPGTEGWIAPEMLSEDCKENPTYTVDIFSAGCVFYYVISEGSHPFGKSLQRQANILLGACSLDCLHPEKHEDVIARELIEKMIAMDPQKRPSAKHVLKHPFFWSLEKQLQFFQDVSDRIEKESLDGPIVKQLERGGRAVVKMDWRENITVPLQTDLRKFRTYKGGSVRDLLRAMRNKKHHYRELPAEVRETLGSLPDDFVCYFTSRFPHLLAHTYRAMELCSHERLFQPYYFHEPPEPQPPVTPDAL

Compound | IC50 [nM]
CC(C)(F)C1CNCC(Nc2nccc(-c3cccnc3Oc3cc(F)c(NS(=O)(=O)Cc4ccccc4)c(F)c3F)n2)C1 (stereo not drawn) [Compound 333, 1-Phenyl-N-(2,3,6-trifluoro-4-((3-(2-((5-(2-fluoropropan-2-yl)piperidin-3-yl)amino)pyrimidin-4-yl)pyridin-2-yl)oxy)phenyl)methanesulfonamide hydrochloride] | 0.19
O=S(=O)(Cc1ccccc1F)Nc1cc(Cl)c(Oc2ncccc2-c2ccnc(N[C@@H]3CNC[C@@H](F)C3)n2)c(F)c1F [Compound 340, N-(5-Chloro-2,3-difluoro-4-((3-(2-(((3S,5S)-5-fluoropiperidin-3-yl)amino)pyrimidin-4-yl)pyridin-2-yl)oxy)phenyl)-1-(2-fluorophenyl)methanesulfonamide] | 7.5
COCCN(C)[C@H]1CC[C@H](Nc2nccc(-c3cccnc3Oc3cc(F)c(NS(=O)(=O)Cc4ccc(F)cc4)c(F)c3F)n2)CC1 [Compound 341, 1-(4-Fluorophenyl)-N-(2,3,6-trifluoro-4-((3-(2-(((1r,4r)-4-((2-methoxyethyl)(methyl)amino)cyclohexyl)amino)pyrimidin-4-yl)pyridin-2-yl)oxy)phenyl)methanesulfonamide hydrochloride] | 0.5
COCCN(C)[C@H]1CC[C@H](Nc2nccc(-c3cccnc3Oc3cc(F)c(NS(=O)(=O)C4CCCCC4)c(F)c3F)n2)CC1 [Compound 350, N-(2,3,6-Trifluoro-4-((3-(2-(((1r,4r)-4-((2-methoxyethyl)(methyl)amino)cyclohexyl)amino)pyrimidin-4-yl)pyridin-2-yl)oxy)phenyl)cyclohexanesulfonamide] | 0.42
O=S(=O)(Cc1ccc(F)cc1F)Nc1c(F)cc(Oc2ncccc2-c2ccnc(N[C@@H]3CNC[C@@H](F)C3)n2)c(F)c1F [Compound 351, 1-(2,4-Difluorophenyl)-N-[2,3,6-trifluoro-4-[[3-[2-[[(3S,5S)-5-fluoro-3-piperidyl]amino]pyrimidin-4-yl]-2-pyridyl]oxy]phenyl]methanesulfonamide] | 0.91
N#Cc1cc(F)ccc1CS(=O)(=O)Nc1c(F)cc(Oc2ncccc2-c2ccnc(N[C@@H]3CNC[C@@H](F)C3)n2)c(F)c1F [Compound 357, 1-(2-Cyano-4-fluoro-phenyl)-N-[2,3,6-trifluoro-4-[[3-[2-[[(3S,5S)-5-fluoro-3-piperidyl]amino]pyrimidin-4-yl]-2-pyridyl]oxy]phenyl]methanesulfonamide] | 1
N#Cc1ccc(CS(=O)(=O)Nc2c(F)cc(Oc3ncccc3-c3ccnc(N[C@@H]4CNC[C@@H](F)C4)n3)c(F)c2F)c(F)c1 [Compound 360] | 0.8
NC(=O)c1ccc(CS(=O)(=O)Nc2c(F)cc(Oc3ncccc3-c3ccnc(N[C@@H]4CNC[C@@H](F)C4)n3)c(F)c2F)c(F)c1 [Compound 361, 3-Fluoro-4-[[2,3,6-trifluoro-4-[[3-[2-[[(3S,5S)-5-fluoro-3-piperidyl]amino]pyrimidin-4-yl]-2-pyridyl]oxy]phenyl]sulfamoylmethyl]benzamide] | 0.3
N#Cc1cc(Cl)ccc1CS(=O)(=O)Nc1c(F)cc(Oc2ncccc2-c2ccnc(N[C@@H]3CNC[C@@H](F)C3)n2)c(F)c1F [Compound 362] | 0.2
O=S(=O)(Cc1ccc(Cl)cc1F)Nc1c(F)cc(Oc2ncccc2-c2ccnc(N[C@@H]3CNC[C@@H](F)C3)n2)c(F)c1F [Compound 364, 1-(4-Chloro-2-fluoro-phenyl)-N-[2,3,6-trifluoro-4-[[3-[2-[[(3S,5S)-5-fluoro-3-piperidyl]amino]pyrimidin-4-yl]-2-pyridyl]oxy]phenyl]methanesulfonamide] | 0.3

The next lines start with the values.

IC50 [nM] | Compound
0.33 | O=S(=O)(Cc1ccccc1F)Nc1c(Cl)cc(Oc2ncccc2-c2ccnc(N[C@@H]3CNC[C@@H](F)C3)n2)c(F)c1F [Compound 323, N-(6-Chloro-2,3-difluoro-4-((3-(2-(((3S,5S)-5-fluoropiperidin-3-yl)amino)pyrimidin-4-yl)pyridin-2-yl)oxy)phenyl)-1-(2-fluorophenyl)methanesulfonamide]
56 | O=S(=O)(Cc1ccccc1F)Nc1c(F)cc(Oc2ncccc2-c2ccnc(N[C@@H]3CNC[C@@H](F)C3)n2)c(Cl)c1F [Compound 332, N-(3-Chloro-2,6-difluoro-4-((3-(2-(((3S,5S)-5-fluoropiperidin-3-yl)amino)pyrimidin-4-yl)pyridin-2-yl)oxy)phenyl)-1-(2-fluorophenyl)methanesulfonamide]
0.2 | O=S(=O)(Cc1ccccc1Cl)Nc1c(F)cc(Oc2ncccc2-c2ccnc(N[C@@H]3CNC[C@@H](F)C3)n2)c(F)c1F [Compound 352, 1-(2-Chlorophenyl)-N-[2,3,6-trifluoro-4-[[3-[2-[[(3S,5S)-5-fluoro-3-piperidyl]amino]pyrimidin-4-yl]-2-pyridyl]oxy]phenyl]methanesulfonamide]
0.3 | O=S(=O)(Cc1cccc(Cl)c1)Nc1c(F)cc(Oc2ncccc2-c2ccnc(N[C@@H]3CNC[C@@H](F)C3)n2)c(F)c1F [Compound 353, 1-(3-Chlorophenyl)-N-[2,3,6-trifluoro-4-[[3-[2-[[(3S,5S)-5-fluoro-3-piperidyl]amino]pyrimidin-4-yl]-2-pyridyl]oxy]phenyl]methanesulfonamide]
0.2 | O=S(=O)(Cc1ccc(Cl)cc1)Nc1c(F)cc(Oc2ncccc2-c2ccnc(N[C@@H]3CNC[C@@H](F)C3)n2)c(F)c1F [Compound 354, 1-(4-Chlorophenyl)-N-[2,3,6-trifluoro-4-[[3-[2-[[(3S,5S)-5-fluoro-3-piperidyl]amino]pyrimidin-4-yl]-2-pyridyl]oxy]phenyl]methanesulfonamide]
0.2 | O=S(=O)(Cc1ccccc1F)Nc1c(F)cc(Oc2ncccc2-c2ccnc(N[C@@H]3CNC[C@@H](F)C3)n2)c(F)c1F [Compound 355, 1-(2-Fluorophenyl)-N-[2,3,6-trifluoro-4-[[3-[2-[[(3S,5S)-5-fluoro-3-piperidyl]amino]pyrimidin-4-yl]-2-pyridyl]oxy]phenyl]methanesulfonamide]
0.2 | O=S(=O)(Cc1ccccn1)Nc1c(F)cc(Oc2ncccc2-c2ccnc(N[C@@H]3CNC[C@@H](F)C3)n2)c(F)c1F [Compound 356, 1-(2-Pyridyl)-N-[2,3,6-trifluoro-4-[[3-[2-[[(3S,5S)-5-fluoro-3-piperidyl]amino]pyrimidin-4-yl]-2-pyridyl]oxy]phenyl]methanesulfonamide]
0.3 | N#Cc1ccccc1CS(=O)(=O)Nc1c(F)cc(Oc2ncccc2-c2ccnc(N[C@@H]3CNC[C@@H](F)C3)n2)c(F)c1F [Compound 358]
0.3 | O=S(=O)(Cc1ccncc1)Nc1c(F)cc(Oc2ncccc2-c2ccnc(N[C@@H]3CNC[C@@H](F)C3)n2)c(F)c1F [Compound 359]
0.2 | O=S(=O)(Cc1c(F)cccc1F)Nc1c(F)cc(Oc2ncccc2-c2ccnc(N[C@@H]3CNC[C@@H](F)C3)n2)c(F)c1F [Compound 363, 1-(2,6-Difluorophenyl)-N-[2,3,6-trifluoro-4-[[3-[2-[[(3S,5S)-5-fluoro-3-piperidyl]amino]pyrimidin-4-yl]-2-pyridyl]oxy]phenyl]methanesulfonamide]
0.7 | O=S(=O)(Cc1ccc(F)cc1Cl)Nc1c(F)cc(Oc2ncccc2-c2ccnc(N[C@@H]3CNC[C@@H](F)C3)n2)c(F)c1F [Compound 365, 1-(2-Chloro-4-fluoro-phenyl)-N-[2,3,6-trifluoro-4-[[3-[2-[[(3S,5S)-5-fluoro-3-piperidyl]amino]pyrimidin-4-yl]-2-pyridyl]oxy]phenyl]methanesulfonamide]
